This assay relates to A375 cells. Briefly: Confocal microscopy, internalization of fluorescence-labeled peptide. The format is cell-based, human. How it is done: The A375 cell line A375 (ECACC, 88113005) is a human malignant melanoma derived from patient material, and was purchased from Public Health England (PHE Culture Collections, Porton Down, Salisbury, UK). Cells were maintained as monolayer cultures in high glucose […] DMEM supplemented with 10% FBS and 1% L-glutamine, but not as antibiotics (complete media). The cell line was grown in a humidified 5% CO2 atmosphere at 37° C., and was regularly tested for the presence of mycoplasma with MycoAlert (Lonza).
Fixed cells, fluorescence-labeled peptide—Subconfluential A375 cells were seeded at 8,000 cells/well as above, and transfected on the second day using the Lipofectamine LTX with Plus transfection reagents (Invitrogen) following the manufacturer's protocol. The mitochondria were labeled using the pDsRed2-Mito, and the nucleus was labeled using the GFP-Histon2B plasmid (Imaging Platform, University of Tromsø). A day after transfection, cells were washed twice with serum-free RPMI, and treated at different concentration and incubation periods with LTX-315 Pacific Blue or LTX-328 Pacific Blue. […] Control cells were treated with unlabeled LTX-315 and also with serum-free RPMI only. After incubation, cells were fixed with 4% paraformaldehyde in PBS, and the wells were covered with Prolong Gold antifade (Invitrogen). Cells were further analyzed by use of a Leica TCS SP5 confocal microscope, with a […] objective. Pacific Blue, GFP and Ds Red were excited using UV, with 488 and 561 lasers, and fluorescence channels were sequentially detected using the following band passes: UV: 420-480 nm (with attenuation), 488: 501-550 nm and 561: 576-676 nm.

Square brackets hold non-standard residues; d marks the D form. Ends that are not written are not given here. Dip = N[C@H](C(=O)O)C(c1ccccc1)c1ccccc1

Take “KAQ[Dip]QKQAW-NH2 [LTX-328, reference compound]”: the internalization of peptide entry (3 μM, 60 min) was “not internalized”. Moreover, the “internalization of Pacific Blue-labelled peptide” value (A375 cells, 3 μM and 1.5 μM) is “did not demonstrate any internalization”.

Values taken from US20250002854A1, “METHODS OF GENERATING POPULATIONS OF TUMOUR-INFILTRATING T CELLS” (LYTIX BIOPHARMA AS, priority 2016, published 2025).
